The text below walks through data of patent US9725416B2, “Ethynyl derivatives” (Hoffmann-La Roche Inc., priority 2014, dated 2017).

The structures appear in SMILES notation.

The subject of one assay is mice treated with MPTP. The conditions noted are these: cited from earlier work.
Assay [1] has as its system mice. As to conditions: reported by Addex 2010; cited from earlier work.
Assay [2] relates to mice. As to conditions: reported by Addex 2010; cited from earlier work. This is another data set of the same source.
For another assay, the system named is rats. As to conditions: cited from earlier work.
In assay [3] the test system is 6-OHDA rodent model of PD. The conditions noted are these: cited from earlier work.
A further assay deals with T1, human mGlu4 receptor (Homo sapiens, UniProt Q14833).
T1 construct: expressed in transfected cells; host or cells: HEK-293 (monoclonal, stably transfected)
Description: Ca2+ mobilization in vitro assay on recombinant human mGlu4 expressed in HEK293 cells (mGlu4 PAM). Type of assay: cell-based. The conditions noted are these: for Emax: HEK293, maximal response in % of the maximal stimulatory effect obtained with saturating concentrations of L-AP4, read-out: Eff. (%); for EC50: HEK-293 cells, Ca2+ mobilization, L-AP4 added at EC20. In a few lines: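 HEK293 line stably expressing human mGlu4 (low expression, low constitutive activity), Fluo-4AM loaded; compounds (11 half-log dilutions) preincubated 10-30 min at 37 °C, then L-AP4 added at its EC20, determined daily. EC50 from peak fluorescence minus basal, normalized to saturating L-AP4 maximum, four-parameter fit.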

T1 sequence (Q14833 33-912): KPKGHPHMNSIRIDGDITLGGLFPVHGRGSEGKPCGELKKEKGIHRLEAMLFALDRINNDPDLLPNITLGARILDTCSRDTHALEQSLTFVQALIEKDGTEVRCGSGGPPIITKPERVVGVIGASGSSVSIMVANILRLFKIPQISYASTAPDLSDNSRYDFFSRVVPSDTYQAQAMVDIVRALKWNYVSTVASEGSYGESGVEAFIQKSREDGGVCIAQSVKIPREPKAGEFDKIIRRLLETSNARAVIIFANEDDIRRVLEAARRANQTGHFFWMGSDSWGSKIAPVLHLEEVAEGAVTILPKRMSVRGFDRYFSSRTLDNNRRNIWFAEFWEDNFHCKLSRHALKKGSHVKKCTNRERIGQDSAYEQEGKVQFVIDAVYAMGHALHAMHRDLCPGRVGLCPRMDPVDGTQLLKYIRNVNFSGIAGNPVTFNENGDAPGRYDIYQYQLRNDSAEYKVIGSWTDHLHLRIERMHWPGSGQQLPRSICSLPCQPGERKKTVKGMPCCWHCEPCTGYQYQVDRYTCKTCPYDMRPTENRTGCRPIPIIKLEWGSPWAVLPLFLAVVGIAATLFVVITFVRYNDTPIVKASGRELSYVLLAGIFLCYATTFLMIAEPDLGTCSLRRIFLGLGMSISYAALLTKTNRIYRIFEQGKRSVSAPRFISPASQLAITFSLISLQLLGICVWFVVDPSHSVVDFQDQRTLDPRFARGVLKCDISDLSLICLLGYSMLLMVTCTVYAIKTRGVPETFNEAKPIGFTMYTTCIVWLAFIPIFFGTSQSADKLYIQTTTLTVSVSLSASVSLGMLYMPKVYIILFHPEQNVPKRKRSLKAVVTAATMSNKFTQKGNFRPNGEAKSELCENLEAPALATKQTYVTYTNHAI

Turning to `O=C(Nc1ccccc1)C12CC1/C(=N\O)c1ccccc1O2` (single isomer, unassigned; (-)) [(−)-PHCCC], in the assay with mice treated with MPTP, the nigrostriatal degeneration result is given as “reduced nigrostriatal degeneration”.

Turning to `Cc1ccnc(Nc2nc(-c3cn[nH]c3)c(C)s2)n1` [ADX88178], the “activity in marble burying test” value with mice [1] was “active”. For the same molecule, the “activity in EPM” value in the assay with mice [2] is “active”; in the assay with rats (rats, reported by Addex 2010) it was “active”. The “profile in rat EPM test” value with rats (rat, after oral dosing) is listed as “anxiolytic-like profile”.

In the case of `N[C@@H](CCP(=O)(O)O)C(=O)O` [L-AP4, (2S)-2-amino-4-phosphonobutanoic acid], the neuroprotection entry in assay [3] is “neuroprotective effects”.

Regarding `CN1C(=O)N(c2c(F)cc(C#Cc3cccnc3)cc2F)C(=O)CC1(C)c1ccc(Cl)cc1` (racemic) [Example 41, (6RS)-6-(4-Chlorophenyl)-3-[2,6-difluoro-4-[2-(3-pyridyl)ethynyl]phenyl]-1,6-dimethyl-hexahydropyrimidine-2,4-dione], at human mGlu4 receptor, the Emax is 115% and the half-maximal effective concentration (EC50) (usually the concentration at which the effect is half-maximal) was found to be 229 nM.

Take `CN1C(=O)N(c2c(F)cc(C#Cc3cccnc3)cc2F)C(=O)CC1(C)c1ccccc1Cl` (racemic) [Example 40, (6RS)-6-(2-Chlorophenyl)-3-[2,6-difluoro-4-[2-(3-pyridyl)ethynyl]phenyl]-1,6-dimethyl-hexahydropyrimidine-2,4-dione]: on human mGlu4 receptor, the Emax stood at 109% and the concentration giving a half-maximal response (EC50) is 394 nM.

For the molecule `CN1C(=O)N(c2c(F)cc(C#Cc3cccnc3)cc2F)C(=O)C[C@@]1(C)c1cccnc1` [Example 53, (6S)-3-[2,6-Difluoro-4-[2-(3-pyridyl)ethynyl]phenyl]-1,6-dimethyl-6-(3-pyridyl)hexahydropyrimidine-2,4-dione], at human mGlu4 receptor, the Emax amounted to 110% and the concentration for a half-maximal effect (EC50) was 80 nM.

For `CCC1(CC)CC(=O)N(c2c(F)cc(C#Cc3ccccc3)cc2F)C(=O)N1` [Example 21, 3-[2,6-Difluoro-4-(2-phenylethynyl)phenyl]-6,6-diethyl-hexahydropyrimidine-2,4-dione], at human mGlu4 receptor, the Emax worked out at 106% and the concentration giving a half-maximal response (EC50) was 145 nM.

With `CN1C(=O)N(c2ncc(C#Cc3ccccc3)cc2F)C(=O)CC1(C)c1ccccc1` (racemic) [Example 45, (6RS)-3-[3-Fluoro-5-(2-phenylethynyl)-2-pyridyl]-1,6-dimethyl-6-phenyl-hexahydropyrimidine-2,4-dione], on human mGlu4 receptor, the Emax is 107% and the EC50 was determined as 72 nM.

For the molecule `COCC1(C)CC(=O)N(c2c(F)cc(C#Cc3ccccc3)cc2F)C(=O)N1C` (racemic) [Example 30, (6RS)-3-[2,6-Difluoro-4-(2-phenylethynyl)phenyl]-6-(methoxymethyl)-1,6-dimethyl-hexahydropyrimidine-2,4-dione], on human mGlu4 receptor, the Emax is 103% and the EC50 was 123 nM.

On to `CN1C(=O)N(c2ccc(C#Cc3ccccc3)cc2Cl)C(=O)CC12CCCCC2` [Example 3, 3-[2-Chloro-4-(2-phenylethynyl)phenyl]-1-methyl-1,3-diazaspiro[5.5]undecane-2,4-dione], for which, on human mGlu4 receptor, the Emax amounted to 105% and the concentration for a half-maximal effect (EC50) amounted to 245 nM.

Consider `CC1C(=O)N(c2c(F)cc(C#Cc3ccccc3)cc2F)C(=O)N(C)C1(C)C` (racemic) [Example 7, (5RS)-3-[2,6-Difluoro-4-(2-phenylethynyl)phenyl]-1,5,6,6-tetramethyl-hexahydropyrimidine-2,4-dione], for which, on human mGlu4 receptor, the Emax is 148% and the EC50 was 157 nM.

`CN1C(=O)N(c2c(F)cc(C#Cc3ccccc3)cc2F)C(=O)C[C@@]1(C)c1ccc(=O)n(C)c1` [Example 66, (6S)-3-[2,6-Difluoro-4-(2-phenylethynyl)phenyl]-1,6-dimethyl-6-(1-methyl-6-oxo-3-pyridyl)hexahydropyrimidine-2,4-dione]: on human mGlu4 receptor, the Emax was 114% and the EC50 was determined as 43 nM.

In the case of `O=C1CC2COCCN2C(=O)N1c1c(F)cc(C#Cc2ccccc2)cc1F` (racemic) [Example 8, (9aRS)-7-[2,6-Difluoro-4-(2-phenylethynyl)phenyl]-3,4,9,9a-tetrahydro-1H-pyrimido[6,1-c][1,4]oxazine-6,8-dione], on human mGlu4 receptor, the Emax came out at 107% and the concentration giving a half-maximal response (EC50) is 144 nM.

Consider `CN1C(=O)N(c2c(F)cc(C#Cc3ccccc3)cc2F)C(=O)C[C@@]1(C)c1ccc(=O)[nH]n1` [Example 82, (6S)-3-[2,6-Difluoro-4-(2-phenylethynyl)phenyl]-1,6-dimethyl-6-(6-oxo-1H-pyridazin-3-yl)hexahydropyrimidine-2,4-dione], for which, on human mGlu4 receptor, the Emax was 115% and the concentration for a half-maximal effect (EC50) was 18 nM.

Take `CN1C(=O)N(c2c(F)cc(C#Cc3cccnc3)cc2F)C(=O)CC1(C)c1cccc(Cl)c1` (racemic) [Example 39, (6RS)-6-(3-Chlorophenyl)-3-[2,6-difluoro-4-[2-(3-pyridyl)ethynyl]phenyl]-1,6-dimethyl-hexahydropyrimidine-2,4-dione]: on human mGlu4 receptor, the Emax is 112% and the 50% effective concentration (EC50) was 224 nM.

As for `CN1C(=O)N(c2ncc(C#Cc3ccccc3)cc2C(F)(F)F)C(=O)CC1(C)c1ccccc1` (racemic) [Example 46, (6RS)-1,6-Dimethyl-6-phenyl-3-[5-(2-phenylethynyl)-3-(trifluoromethyl)-2-pyridyl]hexahydropyrimidine-2,4-dione], on human mGlu4 receptor, the Emax came out at 105% and the EC50 was found to be 116 nM.

Take `CC(C)N1C(=O)N(c2c(F)cc(C#Cc3ccccc3)cc2F)C(=O)C[C@@]1(C)c1cccnc1` [Example 70, (6S)-3-[2,6-Difluoro-4-(2-phenylethynyl)phenyl]-1-isopropyl-6-methyl-6-(3-pyridyl)hexahydropyrimidine-2,4-dione]: on human mGlu4 receptor, the Emax was 106% and the concentration giving a half-maximal response (EC50) was found to be 73 nM.

As for `CN1C(=O)N(c2c(F)cc(C#Cc3ccccc3)cc2F)C(=O)C[C@@]1(C)c1ccc2nccn2n1` [Example 85, (6S)-3-[2,6-Difluoro-4-(2-phenylethynyl)phenyl]-6-imidazo[1,2-b]pyridazin-6-yl-1,6-dimethyl-hexahydropyrimidine-2,4-dione], on human mGlu4 receptor, the Emax was 88% and the EC50 came out at 57 nM.

Consider `CN1C(=O)N(c2ccc(C#Cc3ccccc3)cc2Cl)C(=O)CC12CCC2` [Example 5, 7-[2-Chloro-4-(2-phenylethynyl)phenyl]-5-methyl-5,7-diazaspiro[3.5]nonane-6,8-dione], for which, at human mGlu4 receptor, the Emax amounted to 93% and the 50% effective concentration (EC50) was determined as 304 nM.

Consider `CCC1(CC)CC(=O)N(c2c(F)cc(C#Cc3ccccc3)cc2F)C(=O)N1C` [Example 22, 3-[2,6-Difluoro-4-(2-phenylethynyl)phenyl]-6,6-diethyl-1-methyl-hexahydropyrimidine-2,4-dione], for which, at human mGlu4 receptor, the Emax was determined as 137% and the EC50 was 73 nM.
